According to patent US20080262080A1, “Allergy Suppressive Agent” (KYUSHU UNIVERSITY, NATIONAL UNIVERSITY CORPORATION, priority 2004, published 2008):

System: germline IgE heavy chain transcription (εGT)
Experiment: Suppression of IL-4-induced germline IgE heavy chain transcript (εGT) expression in DND39 cells (RT-PCR, blot)
Type: cell-based, human
Details: IL-4 (25 U/ml), chrysin at various concentrations, 48 hours
Description: IL-4 (25 U/ml) and chrysin at various concentrations were added to human mature B cell line DND39 cells and then the cells were incubated for 48 hours. mRNA was collected from the cells and cDNA was synthesized. An RT-PCR amplification product was electrophoresed on an agarose gel and transferred onto a membrane and εGT was thus detected. GAPDH (glyceraldehyde-3-phosphate dehydrogenase) was employed as a control. For each concentration or the control, the blot in the right side indicates the result in a 1/10 amount.
As described above, the inhibition of the εGT expression brings about fundamental suppression of IgE production. It is known that human mature B cell line DND39 expresses εGT in response to a stimulus by IL-4. Thus, DND39 cells were incubated in the presence of IL-4 and chrysin and the effect of chrysin on the εGT expression was examined.
Human mature B cell line DND39 was subcultured in a RPMI 1640 medium (Nissui), to which 5% of FBS (Intergen) had been added, at 37° C. and 5% CO2 vapor saturation and maintained therein. […]
The density of DND39 cells was adjusted to 2×10^5 cells/mL and incubated in the presence of IL-4 (25 U/mL) and chrysin at each concentration. […] Then, the RNA concentration was measured using a spectrophotometer Ultrospec 3000 (Pharmacia Biotech, Piscatway, N.J.). […]

O=c1cc(-c2ccccc2)oc2cc(O)cc(O)c12 [Chrysin, 5,7-dihydroxyflavone]
εGT expression: concentration-dependently suppressed
